Test results published in patent publication US20140162308A1, “DEVICE AND METHOD FOR I[…] AND COUNTING MICROBES AND DETERMINING ANTIMICROBIAL SENSITIVITY” (Texas State University, priority 2011, published 2014).

Test system: E. Coli B
Assay: Antimicrobial sensitivity test: resistance signature of the microbial sample after adding the antibiotic
Format: cell-based
Details: 0.9 mL of 10^3 CFU/mL E. Coli B in LB Broth + 0.1 mL antibiotic, room temperature; slope of control samples remains negative; FIGS. 7A-7D
Description: FIGS. 7A-7D depict signatures of microbial sample of 0.9 mL of a concentration of 10^3 CFU/mL of two-hour E. Coli B treated with 0.1 mL of antibiotics or antimicrobials and control samples in the absence thereof. What is common to all FIGS. 7A-7D is the slope for signatures with antibiotics or antimicrobials become positive, i.e., the resistance component of total impedance of the microbial sample increases, upon addition of the antibiotic or antimicrobial. The slope of the control samples remains negative.
In further detail, a difference in the degree of the slope change for the signature can be observed. […]
An overnight bacterial culture of E. coli B with a concentration of around 10^9 cells which had attained room temperature were diluted using LB Broth which had also attained room temperature to a final concentration of 10^3 cells. 0.9 ml of this solution was then placed into one sensor well which was connected to lead #1 of a reader unit. An additional 0.9 ml of the bacteria was placed into a second sensor well which was connected to lead#2 of a reader unit. […]
An overnight bacterial culture of E. coli B with a concentration of around 10^9 cells that had attained room temperature were diluted to a final concentration of 10^3 cells. 0.9 ml of this solution was then placed into a first sensor well which was connected to lead #1 of a reader unit. […]

How did the “slope of the signature (resistance component of total impedance of the microbial sample) upon addition of the antibiotic or antimicrobial” value turn out when `Cc1cc(NS(=O)(=O)c2ccc(N)cc2)no1` [sulfamethoxazole] was run?
Its value is “steeper than for azithromycin”.
